Reference: US20250177566A1, “USE OF CHEMICAL EPIGENETIC MODIFIERS TO MODULATE GENE EXPRESSION” (The University of North Carolina at Chapel Hill, priority 2022, published 2025)

Experiments:
[1] = test system: AAV transgene expression (firefly luciferase); test: AAV regulation with first generation CEM, dual luciferase assay, HCT116 Renilla; assay type: cell-based, human; conditions: FIG. 12, 50, 200, 500, 1000 nM
Description: It was investigated whether rAAV transgene expression can be epigenetically controlled. Rapid screening of CEM technology can be performed with dual liucierase assays. (FIG. 10). Briefly, a cell line can be stably transduced with Ef1a-Renilla, enabling normalization to cell number. The cells are then either infected with AAV or tranfected with plasmid and dosed with a chemical epigenetic modifier. Luminescence can then be measured with the Dual Lucieferase Reporter, commercially available from Promega. This approach is described in more detail in the methods section of the example. Gene activation can be described as normalized luciferase or fold change. A measure of total gene expression can be calculated by
Preliminary regulation of AAV with first generation CEMs is depicted in FIG. 11A. The prototype system is autogenous, saving casssette space. (FIG. 11B). […] Preliminary regulation of AAV with first generation CEMs in HEK293T Renilla cells using the cassette in FIG. 11B results are shown in FIG. 13, with multiplicity of infection (MOI)=number of viral genomes/cell.

[2] = test system: MYOD1; test: MYOD1 mRNA activation in HEK293T (dCas9, MS2-FKBP*x2), qRT-PCR; assay type: cell-based, human; conditions: FIG. 7E; for fold change, MYOD1 mRNA (MYOD1 gRNA vs NT gRNA): 24 hrs
Experimental: HCT116 cells were stably infected with dCas9 and MS2-FKBP*x2 via lentivirus. NT gRNA was transfected and the change of CXCR4 mRNA expression were quantified with RNA extraction and qRT-PCR, normalized to GAPDH. After 24 hrs of SLF*-CEMa exposure, the cells were separated into three groups: 1) continuous SLF*-CEMa treatment; 2) washout with media; and 3) washout with 20 μM AP1867 added. RNA extraction was performed at 12, 24, 48, and 72 hrs time points. […] HCT116 cells were stably expressing dCas9 and MS2-FKBP*x2 constructs and transfected with CXCR4 gRNA or NT gRNA. APC CXCR4 antibody was used in flow cytometry at referred time points. […] HEK293T cells were lentivirally infected with dCas9 and MS2-FKBP*x2 constructs and transfected with MYOD1 gRNA or NT gRNA. RNA extraction and qRT-PCR were performed after 24 hrs of CEM207 treatment in 5 nM, 25 nM, and 50 nM concentrations along with no chemical treatment as the control group. MYOD1 mRNA expression level was normalized to GAPDH. […] Stable dCas9 and MS2-FKBP*x2 expressing HEK293T cells were transfected with CXCR4 gRNA and NT gRNA. RNA extraction and qRT-PCR were performed after 24 hrs of 25 nM CEM207 or no chemical treatment. CXCR4 mRNA expression level was normalized to GAPDH. […] Stable dCas9 and MS2-FKBP*x2 expressing HEK293T cells were transfected with IL1RN gRNA and NT gRNA. RNA extraction and qRT-PCR were performed after 24 hrs of 25 nM CEM207 treatment. IL1RN mRNA expression level was normalized to GAPDH. […] Stable dCas9 and MS2-FKBP*x2 expressing HEK293T cells were transfected with ASLC1 gRNA and NT gRNA. RNA extraction and qRT-PCR were performed after 24 hrs of 25 nM CEM207 treatment. IL1RN mRNA expression level was normalized to GAPDH. […] Error bars represent the standard deviation.
As a gene-specific activation technology, it is important to investigate the universal applicability of SLF*-CEMa and evaluate their ability to activate variable genes in different tissue cells. To do so, HEK293T cells stably expressing dCas9 and MS2-FKBP*x2 constructs via lentiviral infection were established and benchmarked for the gene activation level of MYOD1, CXCR4, and IL1RN after CEM207 treatment for 24 hours. HEK293T cells transfected with MYOD1 gRNA were treated with 5 nM, 25 nM, or 50 nM of CEM207. RNA extraction and qRT-PCR were preformed after 24 hours. […] As a result, another gene was tested in the […] cell line. Stably infected cells were transfected with ASCL1 gRNA and mRNA expression was measured by qRT-PCR.
RNA extraction and qRT-PCR. All RNA extraction experiments were conducted in 12-well plate format. Culturing medium was removed, and cells were washed with 1×PBS, following with 0.05% trypsin to disassociate. […] The primer sets used in quantifying each gene can be found in Table 4.

SMILES: COc1ccc2c(c1)C(c1ccc(Cl)cc1)=N[C@@H](CC(=O)NCc1cn(CCOCCOCCOCCNC(=O)CCSCCC[C@@H]3/C=C(\C)C[C@H](C)C[C@H](OC)[C@H]4O[C@@](O)(C(=O)C(=O)N5CCCC[C@H]5C(=O)O[C@H](/C(C)=C/[C@@H]5CC[C@@H](O)[C@H](OC)C5)[C@H](C)[C@@H](O)CC3=O)[C@H](C)C[C@@H]4OC)nn1)c1nnc(C)n1-2 [CEM87, reference compound]
- luminescence, fold change compared to no treatment [1]: dose dependent increase in luminscence

SMILES: CC[C@H](C(=O)N1CCCC[C@H]1C(=O)O[C@H](CCc1ccc(OC)c(OC)c1)c1cccc(OCC(=O)NCCOCCOCCNC(=O)C[C@@H]2N=C(c3ccc(Cl)cc3)c3c(sc(C)c3C)-n3c(C)nnc32)c1)c1cc(OC)c(OC)c(OC)c1 [CEM207, (R)-1-(3-((14-((S)-4-(4-Chlorophenyl)-2,3,9-trimethyl-6H-thieno[3,2-f][1,2,4]triazolo[4,3-a][1,4]diazepin-6-yl)-2,13-dioxo-6,9-dioxa-3,12-diazatetradecyl)oxy)phenyl)-3-(3,4-dimethoxyphenyl) propyl(S)-1-((S)-2-(3,4,5-trimethoxyphenyl)butanoyl) piperidine-2-carboxylate]
- MYOD1 mRNA expression ([2]; 5 nM, 25 nM, or 50 nM, 24 hours): dose-dependent increase
- fold change, MYOD1 mRNA (MYOD1 gRNA vs NT gRNA) ([2]; 5 nM): 5.4 fold
- fold change, MYOD1 mRNA (MYOD1 gRNA vs NT gRNA) ([2]; 25 nM): 10.8 fold
- fold change, MYOD1 mRNA (MYOD1 gRNA vs NT gRNA) ([2]; 50 nM): 10.9 fold
